The source of these data is US20230167127A1, “COMPOUNDS AND THEIR USE IN THE TREATMENT OF BACTERIAL INFECTION” (Hoffmann-La Roche Inc., priority 2020, published 2023).

The experiment concerns Escherichia coli ATCC 25922. The experiment in a line: 50% growth inhibitory concentration (IC50) determination, Iso-Sensitest broth dilution. To be noted: strain Escherichia coli ATCC 25922, 10-point broth dilution, optical density at 600 nm over 16 h, read-out: Escherichia coli growth inhibition IC50. The format is cell-based. A digest of the protocol: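 10-point twofold Iso-Sensitest broth dilution (e.g. 50 to 0.097 μM final) with DMSO stocks, incubated at 35±2° C. Growth followed by OD 600 nm every 20 min over 16 h; IC50 derived from growth inhibition during logarithmic phase.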

Where [1] appears, read: Escherichia coli, ATCC25922, 16 h.

Where two headings read alike, the source gives them in different places.

In the case of `NC1(COc2ccc3c(c2Cl)CC(NCCCC2CN(c4ccc5c(n4)NC(=O)CO5)C(=O)O2)C3)CC1` (stereo not drawn) [Example 119, 6-[5-[3-[[5-[(1-aminocyclopropyl)methoxy]-4-chloro-2,3-dihydro-1H-inden-2-yl]amino]propyl]-2-oxo-1,3-oxazolidin-3-yl]-4H-pyrido[3,2-b][1,4]oxazin-3-one; formic acid], under setting [1], the IC50 is less than 97.7 nM.
`NC1(CCNCC2CN(c3ccc4c(n3)NC(=O)CO4)C(=O)O2)Cc2cccc(Cl)c2C1` (stereo not drawn) [Example 142, 6-[5-[[2-(2-amino-4-chloro-1,3-dihydroinden-2-yl)ethylamino]methyl]-2-oxo-1,3-oxazolidin-3-yl]-4H-pyrido[3,2-b][1,4]oxazin-3-one; formic acid]: under setting [1], the IC50 is less than 97.7 nM.
`Cc1c(F)cnc2c1CC(CNCCC1CN(c3ccc4c(n3)NC(=O)CO4)C(=O)O1)C2` (stereo not drawn) [Example 300, 6-[5-[2-[(3-fluoro-4-methyl-6,7-dihydro-5H-cyclopenta[b]pyridin-6-yl)methylamino]ethyl]-2-oxo-1,3-oxazolidin-3-yl]-4H-pyrido[3,2-b][1,4]oxazin-3-one]: the IC50 under setting [1] was found to be 156 nM.
As to `N#Cc1cccc2c1CC(NC1CCC3(CN(c4ccc5c(n4)NC(=O)CO5)C(=O)O3)C(N)C1)C2` (racemic) [Example 241, 2-[[rac-5,6-trans-5,8-cis-6-Amino-2-oxo-3-(3-oxo-4H-pyrido[3,2-b][1,4]oxazin-6-yl)-1-oxa-3-azaspiro[4.5]decan-8-yl]amino]-2,3-dihydro-1H-indene-4-carbonitrile; formic acid], the IC50 was 509 nM.
Regarding `NC(COc1cc(F)c2c(c1)CC(CNCCC1CN(c3ccc4c(n3)NC(=O)CO4)C(=O)O1)C2)C(=O)O` (stereo not drawn) [Example 267, 2-Amino-3-[[7-fluoro-2-[[2-[2-oxo-3-(3-oxo-4H-pyrido[3,2-b][1,4]oxazin-6-yl)-1,3-oxazolidin-5-yl]ethylamino]methyl]-2,3-dihydro-1H-inden-5-yl]oxy]propanoic acid; formic acid], the IC50 under setting [1] was less than 97.7 nM.
The same measure, in the same setting: the same measure for `Cc1nc(OCC2(N)CC2)c(C#N)c2c1CC(CN1CCC3(CC1)CN(c1ccc4c(n1)NC(=O)CO4)C(=O)O3)C2` (stereo not drawn) [Example 215, 3-[(1-aminocyclopropyl)methoxy]-1-methyl-6-[[2-oxo-3-(3-oxo-4H-pyrido[3,2-b][1,4]oxazin-6-yl)-1-oxa-3,8-diazaspiro[4.5]decan-8-yl]methyl]-6,7-dihydro-5H-cyclopenta[c]pyridine-4-carbonitrile]: less than 97.7 nM; for `O=C1COc2ccc(N3CC(CCNCC4Cc5cccc(F)c5C4)OC3=O)nc2N1` (stereo not drawn) [Example 91, 6-[5-[2-[(4-fluoro-2,3-dihydro-1H-inden-2-yl)methylamino]ethyl]-2-oxo-1,3-oxazolidin-3-yl]-4H-pyrido[3,2-b][1,4]oxazin-3-one]: less than 97.7 nM; for `O=C1COc2ncc(N3CC4(CCN(CC5Cc6c(F)cc(OCc7cc[nH]n7)c(F)c6C5)CC4)OC3=O)nc2N1` (stereo not drawn) [Example 396, 6-[8-[[4,7-difluoro-5-(1H-pyrazol-3-ylmethoxy)-2,3-dihydro-1H-inden-2-yl]methyl]-2-oxo-1-oxa-3,8-diazaspiro[4.5]decan-3-yl]-4H-pyrazino[2,3-b][1,4]oxazin-3-one]: 161 nM.
The same measure, in the same setting: the same measure for `COc1cc2c(c(C#N)n1)CC(CNCCC1CN(c3cnc4c(n3)NC(=O)CO4)C(=O)O1)C2` (stereo not drawn) [Example 65, 3-methoxy-6-[[2-[2-oxo-3-(3-oxo-4H-pyrazino[2,3-b][1,4]oxazin-6-yl)oxazolidin-5-yl]ethylamino]methyl]-6,7-dihydro-5H-cyclopenta[c]pyridine-1-carbonitrile; formic acid]: less than 97.7 nM; for `CNC(=O)COc1cc(F)c2c(c1F)CC(CNCCC1CN(c3cnc4c(n3)NC(=O)CO4)C(=O)O1)C2` (stereo not drawn) [Example 393, 2-[[4,7-difluoro-2-[[2-[2-oxo-3-(3-oxo-4H-pyrazino[2,3-b][1,4]oxazin-6-yl)-1,3-oxazolidin-5-yl]ethylamino]methyl]-2,3-dihydro-1H-inden-5-yl]oxy]-N-methylacetamide]: less than 97.7 nM.
For `CCNC(=O)COc1cc(F)c2c(c1)CC(CNCCC1CN(c3cnc4c(n3)NC(=O)CO4)C(=O)O1)C2` (stereo not drawn) [Example 308, N-ethyl-2-[[7-fluoro-2-[[2-[2-oxo-3-(3-oxo-4H-pyrazino[2,3-b][1,4]oxazin-6-yl)-1,3-oxazolidin-5-yl]ethylamino]methyl]-2,3-dihydro-1H-inden-5-yl]oxy]acetamide; formic acid], under setting [1], the IC50 stood at 471 nM.
Consider `N#Cc1nccc2c1CC(CN[C@H]1C[C@@]3(CN(c4ccc5c(n4)NC(=O)CO5)C(=O)O3)C1)C2` (stereo partly drawn) [Example 104, 6-[[[2,4-trans-6-oxo-7-(3-oxo-4H-pyrido[3,2-b][1,4]oxazin-6-yl)-5-oxa-7-azaspiro[3.4]octan-2-yl]amino]methyl]-6.7-dihydro-5H-cyclopenta[c]pyridine-1-carbonitrile], for which, under setting [1], the IC50 came out at 99.4 nM.
As for `CNC(=O)COc1ccc2c(c1Cl)CC(CNCCC1CN(c3ccc4c(n3)NC(=O)CO4)C(=O)O1)C2` (stereo not drawn) [Example 108, 2-[[4-chloro-2-[[2-[2-oxo-3-(3-oxo-4H-pyrido[3,2-b][1,4]oxazin-6-yl)-1,3-oxazolidin-5-yl]ethylamino]methyl]-2,3-dihydro-1H-inden-5-yl]oxy]-N-methylacetamide], the IC50 under setting [1] was less than 97.7 nM.
For the compound `CC(C)(CC1CN(c2ccc3c(n2)NC(=O)CO3)C(=O)O1)NCC1Cc2ccnc(Cl)c2C1` (stereo not drawn) [Example 30, 6-[5-[2-[(1-chloro-6,7-dihydro-5H-cyclopenta[c]pyridin-6-yl)methylamino]-2-methylpropyl]-2-oxo-1,3-oxazolidin-3-yl]-4H-pyrido[3,2-b][1,4]oxazin-3-one; formic acid], the IC50 under setting [1] worked out at 3400 nM.
As for `CN(C)CCOc1cc(F)c2c(c1)CC(CNCCC1CN(c3cnc4c(n3)NC(=O)CO4)C(=O)O1)C2` (stereo not drawn) [Example 272, 6-[5-[2-[[6-[2-(Dimethylamino)ethoxy]-4-fluoro-2,3-dihydro-H-inden-2-yl]methylamino]ethyl]-2-oxo-1,3-oxazolidin-3-yl]-4H-pyrazino[2,3-b][1,4]oxazin-3-one; formic acid], the IC50 under setting [1] is less than 97.7 nM.
The same measure, in the same setting: the same measure for `CNC(=O)COc1cc(F)c2c(c1)CC(CN1CCC3(CC1)CN(c1cnc4c(n1)NC(=O)CO4)C(=O)O3)C2` (stereo not drawn) [Example 309, 2-[[7-fluoro-2-[[2-oxo-3-(3-oxo-4H-pyrazino[2,3-b][1,4]oxazin-6-yl)-1-oxa-3,8-diazaspiro[4.5]decan-8-yl]methyl]-2,3-dihydro-1H-inden-5-yl]oxy]-N-methylacetamide]: less than 97.7 nM; for `CC(C)(N)COc1cc(F)c2c(c1F)CC(CN1CCC3(CC1)CN(c1cnc4c(n1)NC(=O)CO4)C(=O)O3)C2` (stereo not drawn) [Example 412, 6-[8-[[5-(2-amino-2-methylpropoxy)-4,7-difluoro-2,3-dihydro-1H-inden-2-yl]methyl]-2-oxo-1-oxa-3,8-diazaspiro[4.5]decan-3-yl]-4H-pyrazino[2,3-b][1,4]oxazin-3-one; formic acid]: less than 97.7 nM.
In the case of `Cc1ncc(F)c2c1CC(CNCCc1cn(-c3cnc4c(n3)NC(=O)CO4)c(=O)o1)C2` (stereo not drawn) [Example 293, 6-[5-[2-[(4-fluoro-1-methyl-6,7-dihydro-5H-cyclopenta[c]pyridin-6-yl)methylamino]ethyl]-2-oxo-1,3-oxazol-3-yl]-4H-pyrazino[2,3-b][1,4]oxazin-3-one], the IC50 under setting [1] is less than 97.7 nM.
Consider `N#Cc1cc(OCc2cnn[nH]2)cc2c1CC(CNCCC1CN(c3cnc4c(n3)NC(=O)CO4)C(=O)O1)C2` (stereo not drawn) [Example 425, 2-[[2-[2-Oxo-3-(3-oxo-4H-pyrazino[2,3-b][1,4]oxazin-6-yl)-1,3-oxazolidin-5-yl]ethylamino]methyl]-6-(1N-triazol-5-ylmethoxy)-2,3-dihydro-1H-indene-4-carbonitrile], for which the half-maximal inhibitory concentration (IC50) under setting [1] worked out at 102 nM.
As to `N#Cc1c(OCC2(N)CC2)ncc2c1CC(CNCCC1CN(c3ccc4c(n3)NC(=O)CO4)C(=O)O1)C2` (stereo not drawn) [Example 198, 3-[(1-aminocycopropyl)methoxy]-6-[[2-[2-oxo-3-(3-oxo-4H-pyrido[3,2-b][1,4]oxazin-6-yl)-1,3-oxazolidin-5-yl]ethylamino]methyl]-6,7-dihydro-5H-cyclopenta[c]pyridine-4-carbonitrile], under setting [1], the IC50 is less than 97.7 nM.
The same measure, in the same setting: the same measure for `CNC(=O)COc1cc(C#N)c2c(c1)CC(CNCCC1CN(c3ccc4c(n3)NC(=O)CO4)C(=O)O1)C2` (stereo not drawn) [Example 107, 2-[[7-cyano-2-[[2-[2-oxo-3-(3-oxo-4H-pyrido[3,2-b][1,4]oxazin-6-yl)-1,3-oxazolidin-5-yl]ethylamino]methyl]-2,3-dihydro-1H-inden-5-yl]oxy]-N-methylacetamide]: 235 nM.
On to `O=C1COc2ccc(N3CC(CCNCC4Cc5c(Cl)cccc5C4O)OC3=O)nc2N1` (racemic) [Example 230, 6-[2-Oxo-5-[2-[[rac-1,2-trans-4-chloro-1-hydroxy-2,3-dihydro-1H-inden-2-yl]methylamino]ethyl]-1,3-oxazolidin-3-yl]-4H-pyrido[3,2-b][1,4]oxazin-3-one], for which, under setting [1], the IC50 is less than 97.7 nM.
As for `CC(N)COc1cc2c(c(Cl)n1)CC(CNCCC1CN(c3cnc4c(n3)NC(=O)CO4)C(=O)O1)C2` (stereo not drawn) [Example 145, 6-[5-[2-[[3-(2-aminopropoxy)-1-chloro-6,7-dihydro-5H-cyclopenta[c]pyridin-6-yl]methylamino]ethyl]-2-oxo-oxazolidin-3-yl]-4H-pyrazino[2,3-b][1,4]oxazin-3-one; formic acid], under setting [1], the IC50 worked out at 191 nM.
For the compound `CNC(=O)COc1cc(F)c2c(c1)CC(CNCCC1CN(c3ccc4c(n3)NC(=O)CO4)C(=O)O1)C2` (stereo not drawn) [Example 69, 2-[[7-fluoro-2-[[2-[2-oxo-3-(3-oxo-4H-pyrido[3,2-b][1,4]oxazin-6-yl)-1,3-oxazolidin-5-yl]ethylamino]methyl]-2,3-dihydro-1H-inden-5-yl]oxy]-N-methylacetamide; formic acid], under setting [1], the IC50 amounted to 123 nM.

For orientation: IC50 means the concentration at which inhibition is half-maximal.
